What was measured:
Format in all cases: functional
[1] = tested on: NCI-H322M; assay: Cytotoxicity against human NCI-H322M cells assessed as growth inhibition at 10 uM after 48 hrs by coulter counter analysis; details: read-out: GI
[2] = tested on: NCI-H226; assay: Cytotoxicity against human NCI-H226 cells assessed as growth inhibition at 10 uM after 48 hrs by coulter counter analysis; details: NCI-H226, 48 h, read-out: GI
[3] = Cytotoxicity against human EKVX cells assessed as growth inhibition at 10 uM after 48 hrs by coulter counter analysis; details: read-out: GI
[4] = tested on: A549; assay: Cytotoxicity against human A549 cells assessed as growth inhibition at 10 uM after 48 hrs by coulter counter analysis; details: A549, 48 h, read-out: GI
[5] = tested on: MDA-MB-468; assay: Cytotoxicity against human MDA-MB-468 cells assessed as growth inhibition at 10 uM after 48 hrs by coulter counter analysis; details: MDA-MB-468, 48 h, read-out: GI
[6] = tested on: T47D; assay: Cytotoxicity against human T47D cells assessed as growth inhibition at 10 uM after 48 hrs by coulter counter analysis; details: read-out: GI
[7] = tested on: MCF7; assay: Cytotoxicity against human MCF7 cells assessed as growth inhibition at 10 uM after 48 hrs by coulter counter analysis; details: MCF7, 48 h, read-out: GI
[8] = tested on: PC-3; assay: Cytotoxicity against human PC3 cells assessed as growth inhibition at 10 uM after 48 hrs by coulter counter analysis; details: PC-3, 48 h, read-out: GI
[9] = tested on: UO-31; assay: Cytotoxicity against human UO31 cells assessed as growth inhibition at 10 uM after 48 hrs by coulter counter analysis; details: UO-31, 48 h, read-out: GI
[10] = tested on: TK-10; assay: Cytotoxicity against human TK10 cells assessed as growth inhibition at 10 uM after 48 hrs by coulter counter analysis; details: TK-10, 48 h, read-out: GI
[11] = tested on: SN12C; assay: Cytotoxicity against human SN12C cells assessed as growth inhibition at 10 uM after 48 hrs by coulter counter analysis; details: read-out: GI
[12] = tested on: RXF 393; assay: Cytotoxicity against human RXF393 cells assessed as growth inhibition at 10 uM after 48 hrs by coulter counter analysis; details: RXF 393, 48 h, read-out: GI
[13] = tested on: CAKI-1; assay: Cytotoxicity against human Caki1 cells assessed as growth inhibition at 10 uM after 48 hrs by coulter counter analysis; details: CAKI-1, 48 h, read-out: GI
[14] = tested on: A498; assay: Cytotoxicity against human A498 cells assessed as growth inhibition at 10 uM after 48 hrs by coulter counter analysis; details: A498, 48 h, read-out: GI
[15] = tested on: SK-OV-3; assay: Cytotoxicity against human SKOV3 cells assessed as growth inhibition at 10 uM after 48 hrs by coulter counter analysis; details: SK-OV-3, 48 h, read-out: GI
[16] = tested on: 786-0; assay: Cytotoxicity against human 786-0 cells assessed as growth inhibition at 10 uM after 48 hrs by coulter counter analysis; details: 786-0, 48 h, read-out: GI
[17] = Cytotoxicity against human NCI-ADR-RES cells assessed as growth inhibition at 10 uM after 48 hrs by coulter counter analysis; details: read-out: GI
[18] = tested on: OVCAR-8; assay: Cytotoxicity against human OVCAR8 cells assessed as growth inhibition at 10 uM after 48 hrs by coulter counter analysis; details: OVCAR-8, 48 h, read-out: GI
[19] = tested on: OVCAR-5; assay: Cytotoxicity against human OVCAR5 cells assessed as growth inhibition at 10 uM after 48 hrs by coulter counter analysis; details: OVCAR-5, 48 h, read-out: GI
[20] = tested on: OVCAR-4; assay: Cytotoxicity against human OVCAR4 cells assessed as growth inhibition at 10 uM after 48 hrs by coulter counter analysis; details: OVCAR-4, 48 h, read-out: GI
[21] = tested on: IGROV-1; assay: Cytotoxicity against human IGROV1 cells assessed as growth inhibition at 10 uM after 48 hrs by coulter counter analysis; details: IGROV-1, 48 h, read-out: GI
[22] = tested on: UACC-62; assay: Cytotoxicity against human UACC62 cells assessed as growth inhibition at 10 uM after 48 hrs by coulter counter analysis; details: UACC-62, 48 h, read-out: GI
[23] = tested on: UACC-257; assay: Cytotoxicity against human UACC257 cells assessed as growth inhibition at 10 uM after 48 hrs by coulter counter analysis; details: UACC-257, 48 h, read-out: GI
[24] = tested on: SK-MEL-28; assay: Cytotoxicity against human SK-MEL-28 cells assessed as growth inhibition at 10 uM after 48 hrs by coulter counter analysis; details: SK-MEL-28, 48 h, read-out: GI
[25] = tested on: MDA-MB-435; assay: Cytotoxicity against human MDA-MB-435 cells assessed as growth inhibition at 10 uM after 48 hrs by coulter counter analysis; details: MDA-MB-435, 48 h, read-out: GI
[26] = tested on: M14; assay: Cytotoxicity against human M14 cells assessed as growth inhibition at 10 uM after 48 hrs by coulter counter analysis; details: M14, 48 h, read-out: GI
[27] = tested on: Malme-3M; assay: Cytotoxicity against human MALME-3M cells assessed as growth inhibition at 10 uM after 48 hrs by coulter counter analysis; details: read-out: GI
[28] = tested on: LOX IMVI; assay: Cytotoxicity against human LOXIMVI cells assessed as growth inhibition at 10 uM after 48 hrs by coulter counter analysis; details: read-out: GI
[29] = tested on: U-251; assay: Cytotoxicity against human U251 cells assessed as growth inhibition at 10 uM after 48 hrs by coulter counter analysis; details: U-251, 48 h, read-out: GI
[30] = tested on: SNB-75; assay: Cytotoxicity against human SNB75 cells assessed as growth inhibition at 10 uM after 48 hrs by coulter counter analysis; details: SNB-75, 48 h, read-out: GI
[31] = tested on: SNB-19; assay: Cytotoxicity against human SNB19 cells assessed as growth inhibition at 10 uM after 48 hrs by coulter counter analysis; details: SNB-19, 48 h, read-out: GI
[32] = tested on: SF-295; assay: Cytotoxicity against human SF295 cells assessed as growth inhibition at 10 uM after 48 hrs by coulter counter analysis; details: SF-295, 48 h, read-out: GI
[33] = tested on: SF-268; assay: Cytotoxicity against human SF268 cells assessed as growth inhibition at 10 uM after 48 hrs by coulter counter analysis; details: SF-268, 48 h, read-out: GI
[34] = tested on: SW-620; assay: Cytotoxicity against human SW620 cells assessed as growth inhibition at 10 uM after 48 hrs by coulter counter analysis; details: SW-620, 48 h, read-out: GI
[35] = tested on: KM12; assay: Cytotoxicity against human KM12 cells assessed as growth inhibition at 10 uM after 48 hrs by coulter counter analysis; details: KM12, 48 h, read-out: GI
[36] = tested on: HT-29; assay: Cytotoxicity against human HT-29 cells assessed as growth inhibition at 10 uM after 48 hrs by coulter counter analysis; details: HT-29, 48 h, read-out: GI
[37] = tested on: HCT-15; assay: Cytotoxicity against human HCT15 cells assessed as growth inhibition at 10 uM after 48 hrs by coulter counter analysis; details: HCT-15, 48 h, read-out: GI
[38] = tested on: COLO 205; assay: Cytotoxicity against human COLO205 cells assessed as growth inhibition at 10 uM after 48 hrs by coulter counter analysis; details: COLO 205, 48 h, read-out: GI

SMILES | inhibition of growth at 10 µM [1] [%] | inhibition of growth at 10 µM [2] [%] | inhibition of growth at 10 µM [3] [%] | inhibition of growth at 10 µM [4] [%] | inhibition of growth at 10 µM [5] [%] | inhibition of growth at 10 µM [6] [%] | inhibition of growth at 10 µM [7] [%] | inhibition of growth at 10 µM [8] [%] | inhibition of growth at 10 µM [9] [%] | inhibition of growth at 10 µM [10] [%] | inhibition of growth at 10 µM [11] [%] | inhibition of growth at 10 µM [12] [%] | inhibition of growth at 10 µM [13] [%] | inhibition of growth at 10 µM [14] [%] | inhibition of growth at 10 µM [15] [%] | inhibition of growth at 10 µM [16] [%] | inhibition of growth at 10 µM [17] [%] | inhibition of growth at 10 µM [18] [%] | inhibition of growth at 10 µM [19] [%] | inhibition of growth at 10 µM [20] [%] | other results
O=C(CSc1nc2ccccc2c(=O)n1CCc1ccccc1)Nc1cc(Cl)ccc1C(=O)O | < 10 | < 10 | 20 | < 10 | < 10 | < 10 | < 10 | < 10 | 18 | < 10 | < 10 | < 10 | 17 | 10 | < 10 | < 10 | < 10 | < 10 | < 10 | < 10 | inhibition of growth at 10 µM [21]: < 10%; inhibition of growth at 10 µM [22]: < 10%; inhibition of growth at 10 µM [23]: < 10%; inhibition of growth at 10 µM [24]: < 10%; inhibition of growth at 10 µM [25]: < 10%; inhibition of growth at 10 µM [26]: < 10%; inhibition of growth at 10 µM [27]: < 10%; inhibition of growth at 10 µM [28]: < 10%; inhibition of growth at 10 µM [29]: < 10%; inhibition of growth at 10 µM [30]: 20%; inhibition of growth at 10 µM [31]: < 10%; inhibition of growth at 10 µM [32]: < 10%; inhibition of growth at 10 µM [33]: < 10%; inhibition of growth at 10 µM [34]: < 10%; inhibition of growth at 10 µM [35]: < 10%; inhibition of growth at 10 µM [36]: < 10%; inhibition of growth at 10 µM [37]: < 10%; inhibition of growth at 10 µM [38]: < 10%
COc1cc(OC(=O)CSc2nc3ccccc3c(=O)n2CCc2ccccc2)cc(OC)c1OC | 11 | 16 | 36 | 10 | < 10 | 26 | 34 | < 10 | 37 | < 10 | 10 | < 10 | 28 | < 10 | < 10 | < 10 | 11 | < 10 | < 10 | < 10 | inhibition of growth at 10 µM [21]: 11%; inhibition of growth at 10 µM [22]: 23%; inhibition of growth at 10 µM [23]: < 10%; inhibition of growth at 10 µM [24]: < 10%; inhibition of growth at 10 µM [25]: < 10%; inhibition of growth at 10 µM [26]: < 10%; inhibition of growth at 10 µM [27]: < 10%; inhibition of growth at 10 µM [28]: < 10%; inhibition of growth at 10 µM [29]: 26%; inhibition of growth at 10 µM [30]: 12%; inhibition of growth at 10 µM [31]: < 10%; inhibition of growth at 10 µM [32]: 13%; inhibition of growth at 10 µM [33]: < 10%; inhibition of growth at 10 µM [34]: < 10%; inhibition of growth at 10 µM [35]: < 10%; inhibition of growth at 10 µM [36]: < 10%; inhibition of growth at 10 µM [37]: 48%; inhibition of growth at 10 µM [38]: < 10%
COc1cc(NC(=O)CCSc2nc3ccccc3c(=O)n2CCc2ccccc2)cc(OC)c1OC | 28 | 10 | 34 | 29 | 27 | 47 | 33 | 25 | 22 | 17 | 16 | 12 | 74 | 37 | 44 | 29 | 13 | 28 | < 10 | 51 | inhibition of growth at 10 µM [21]: 21%; inhibition of growth at 10 µM [22]: 30%; inhibition of growth at 10 µM [23]: 72%; inhibition of growth at 10 µM [24]: 42%; inhibition of growth at 10 µM [25]: 38%; inhibition of growth at 10 µM [26]: 40%; inhibition of growth at 10 µM [27]: 77%; inhibition of growth at 10 µM [28]: 54%; inhibition of growth at 10 µM [29]: 25%; inhibition of growth at 10 µM [30]: 38%; inhibition of growth at 10 µM [31]: 12%; inhibition of growth at 10 µM [32]: 10%; inhibition of growth at 10 µM [33]: 26%; inhibition of growth at 10 µM [34]: 14%; inhibition of growth at 10 µM [35]: 39%; inhibition of growth at 10 µM [36]: 18%; inhibition of growth at 10 µM [37]: 18%; inhibition of growth at 10 µM [38]: 20%

Source: ChEMBL document CHEMBL2396621, “Design, synthesis and biological evaluation of 2-mercapto-3-phenethylquinazoline bearing anilide fragments as potential antitumor agents: molecular docking study” (2013)
